Measurements as given in PMC11637483, “Dissecting caspase-2-mediated cell death: from intrinsic PIDDosome activation to chemical modulation” (Protein & Cell, 2024).

Target: MBP (Escherichia coli, UniProt P0AEX9)
Assay: MicroScale Thermophoresis binding to MBP alone (control)
Settings: MST
Description: The above results prompted us to reason whether HUHS015-36 could directly target caspase-2 for activation without the requirement of any other mediator. To directly test this hypothesis, we tried to obtain purified caspase-2 protein. The preparation of full-length caspase-2 protein is known to be technically challenging. Meanwhile, the CARD domain of a caspase often plays the role in sensing upstream signals, as exemplified by the CARD of caspase-2 that is recruited by RAIDD through the CARD–CARD interaction for assembling the PIDDosome. […]
Figure 4. […] (A) The direct binding between HUHS015-36 and MBP-fused human caspase-2 pro-domain was detected by microscale thermophoresis (MST). […] The calculated dissociation constant (KD) is expressed as means ± s.d. from two determinations. […] ATP-based cell viability in panels (C–E) is expressed as mean ± s.d. from three technical replicates. […] TEXT PRINTED IN THE PICTURE: (A) HUHS015-36: MBP-CASP2(32–165) vs. HUHS015-36: KD (μmol/L): 22.05 ± 6.151; MBP vs. HUHS015-36: KD (μmol/L): Not detected
MicroScale thermophoresis (MST) experiments were carried out at 25°C in the PBST Buffer (PBS with 0.05%, v/v Tween 20) by using a Monolith 2020 (TNG) (MM-208). […] The temperature-induced changes in fluorescence intensity of each sample in the capillary thermophoresis tubes were recorded by the Monolith instrument. […]

For Cc1cccc2nc(-n3nc4c(c3O)CCCC4)[nH]c12 [HUHS015-36], the KD was “Not detected”.
